Source: patent US20230276804A1, “A PESTICIDALLY ACTIVE MIXTURE COMPRISING PYRAZOLOPYRIDINE ANTHRANILAMIDE COMPOUND, OXIDES OR SALTS THEREOF” (priority 2020, published 2023)
Values joined by “and” are separate entries in the source; they are usually repeats but may differ in a detail not shown here. Identical values can stand only once.

What was measured:
Type in all cases: in vivo
Spodoptera litura [1] = assay: Leaf dip method (tomato leaves) with Bacillus thuringiensis against Spodoptera litura (Example E); settings: single, 0.1 ppm, 72 h
Procedure: The leaf dip method was used, wherein the required quantity of the compounds were weighed and dissolved in a test solution prepared in tubes. The tubes were put on a vortex at 2000 rpm for 90 min for proper mixing and then, for the single compounds, diluted with a 0.01% Triton-X solution, for the combinations, diluted with a 0.01% Triton-X solution containing formulated Bt, to get the desired test concentration. Tomato leaves were dipped in the solution for 10 seconds, shade dried for 20 min and then transferred to single cells of the bioassay trays. A single third instar larva was released into each cell and the tray was covered with a lid. The bio-assay trays were kept under laboratory conditions at a temperature of 25° C. and relative humidity of 70%. Observations on dead, moribund and live larvae were recorded at 72 h after the release. Percent mortality was calculated by combining dead and moribund larvae and comparing the results to the one of the untreated control. The results have been described for compound of formula (I-III) in Table E.

Septoria nodorum = assay: Preventive glasshouse test against Parastagonospora nodorum/Septoria nodorum/Stagnospora nodorum in wheat (Example J); settings: single compound
Procedure: The single compounds or respective compound combinations were dissolved in 2% dimethyl sulfoxide/acetone and then mixed with water containing emulsifier to a calibrated spray volume of 50 mL. The test solutions were poured into spray bottles for further applications.
(§1) To test the preventive activity of compounds, healthy young wheat plants, raised in the greenhouse, were sprayed with the active compound preparation at the stated application rates inside the spray cabinets using hollow cone nozzles. One day after treatment, the plants were inoculated with a spore suspension containing 2.8×10^6 Stagnospora nodorum inoculum.
The inoculated plants were then kept in a greenhouse chamber at 22-25° C. temperature and 90-100% relative humidity for disease expression.
A visual assessment of the performance of the single compounds or compound combinations was carried out by rating the disease severity (0-100% scale) on treated plants 3, 7, 10 and 15 days after application. Efficacy (% control) of the single compounds and mixtures was calculated by comparing the disease rating in the treatment with the one of the untreated control. The compounds were also assessed for their plant compatibility by recording symptoms like necrosis, chlorosis and stunting. The results have been described for the compound of formula (I-III) in Table J.

Phakopsora pachyrhizi = assay: Preventive glasshouse test against Phakopsora pachyrhizi in soybean (Example H); settings: single compound
Procedure: The single compounds or the respective compound combinations were dissolved in 2% dimethyl sulfoxide/acetone and then mixed with water containing an emulsifier to a calibrated spray volume of 50 ml. The test solutions were poured into spray bottles for further applications.
as §1, with “Soybean” for “wheat”, “a” for “a spore”, “2×10^5 Phakopsora pachyrhizi conidia. The inoculated plants were then kept in a greenhouse chamber at a temperature of 22-24° C. and 80-90% relative humidity for disease expression.” for “2.8×10^6 Stagnospora nodorum inoculum.”
A visual assessment of the performance of the single compounds and respective compound combinations was carried out by rating the disease severity (0-100% scale) on treated plants 3, 7, 10 and 15 days after application. Efficacy (% control) of the compounds was calculated by comparing the disease rating in the treatment with the one of the untreated control. The compounds were also assessed for their plant compatibility by recording symptoms like necrosis, chlorosis and stunting. The results have been described for the compound of formula (I-III) in Table H.

Spodoptera litura [2] = assay: Diet incorporation method against Spodoptera litura (Example B); settings: single compound, 1 ppm, 96 h
Procedure: The diet incorporation method was used, in which semi-synthetic diet was incorporated into the test solution consisting either of the single compound or respective compound combinations, when the temperature was approximately 50° C. in the bioassay containers, then stirred thoroughly for proper mixing and allowed to cool for 30 min. The solidified diet was cut into equal pieces, and then each piece was transferred into one cell of the bio-assay trays. A single starved third instar larva was released into each of these cells of the bio-assay trays and the tray was covered with a lid. The bio-assay trays were kept under laboratory conditions at a temperature of 25° C. and relative humidity of 70%. Observations on dead, moribund and live larvae were recorded 96 h after the release. Percent mortality was calculated by combining dead and moribund larvae and comparing the result with the one of the untreated control. The results are shown for the compound of formula (I-III) in Table B.

6-(3-bromo-1-(3-chloropyridin-2-yl)-1H-pyrazole-5-carboxamido)-N-isopropyl-5-methylpyrazolo[1,5-a]pyridine-7-carboxamide [Compound (I-III)]
Observed Efficacy (%) (Spodoptera litura [1]): 0% | Observed Efficacy (%) (Septoria nodorum; 100 ppm): 24% | Observed Efficacy (%) (Septoria nodorum; 500 ppm): 32% | Observed Efficacy (%) (Phakopsora pachyrhizi; 100 ppm): 25% | Observed Efficacy (%) (Phakopsora pachyrhizi; 500 ppm): 56% | Observed Efficacy (%) (Spodoptera litura [2]): 12.5% and 25%
